Measurements published in BindingDB's records for patent US20260028337 (Shenzhen Zhongge Biological Technology, 2026).

Target: T1, Interleukin-1 receptor-associated kinase 4 (Homo sapiens, UniProt Q9NWZ3)
T1 sequence (Q9NWZ3 whole entry): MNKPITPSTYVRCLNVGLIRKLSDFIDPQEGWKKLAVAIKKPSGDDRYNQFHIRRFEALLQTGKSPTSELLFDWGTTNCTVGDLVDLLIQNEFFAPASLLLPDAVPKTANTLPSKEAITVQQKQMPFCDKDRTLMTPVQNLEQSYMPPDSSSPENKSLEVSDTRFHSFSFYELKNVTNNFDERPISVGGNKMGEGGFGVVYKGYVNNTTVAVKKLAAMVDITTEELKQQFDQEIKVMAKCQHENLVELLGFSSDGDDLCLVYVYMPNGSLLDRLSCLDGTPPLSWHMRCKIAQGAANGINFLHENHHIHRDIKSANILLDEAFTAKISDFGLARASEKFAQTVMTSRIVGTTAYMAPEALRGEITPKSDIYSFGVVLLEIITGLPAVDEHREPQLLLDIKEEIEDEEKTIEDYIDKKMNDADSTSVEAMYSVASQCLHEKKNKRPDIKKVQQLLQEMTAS
Test: IRAK4 Kinase Inhibition Assay
Method: In this assay, Cisbio HTRF KinEASE-STK SI kit (62S 1 PEB) was used, in which assay/detection buffer, STK Substrate 1-biotin, Streptavidin-XL665, STK Antibody-Cryptate were contained. After adding compound/DMSO to a 384-well plate (PerkinElmer 6008280) using Echo 665, 5 μL of 2-fold reaction concentration of IRAK4 kinase protein (final concentration: 10 nM) dissolved with assay buffer [1 volume of 5× kinase buffer+20 mM magnesium chloride (Sigma) solution+1 mM DTT (Alfa Aesar) solution+4 volumes deionized water] was added, followed by sealing the shallow well plate, shaking and then centrifuging at 1000 rpm for 1 min, and incubating at room temperature for 5 min; then 5 μL of 2-fold reaction concentration of a 1:1 mixture of STK Substrate 1-biotin (final concentration: 1 μM) and ATP (Sigma A1852) (final concentration: 200 μM) formulated with assay buffer was added, followed by sealing the shallow well plate, shaking and then centrifuging at 1000 rpm for 1 min, and incubating at 37° C. for 2 h, and then 10 μL of a 1:1 mixture of Streptavidin-XL665 (final concentration: 62.5 nM) and STK-antibody-cryptate dissolved with detection buffer was added, followed by sealing the shallow well plate, shaking and then centrifuging at 1000 rpm for 1 min, and incubating at room temperature for 1 h, and thereafter reading the value at the wavelength of 620 nm/665 nm using a microplate reader.

IC50: < 100 nM
SMILES: OCC1CCC(n2cc(-n3cc(-c4cnn5ccc(C6CCOC6)nc45)nn3)c(C(F)F)n2)CC1 (stereo unspecified) [US20260028337, Compound 98A]
